Values quoted from earlier work, collected in patent US9877974B2, “Topical formulations comprising a steroid” (Dr. Reddy's Laboratories Ltd., priority 2009, dated 2018).

Question: For `CCC(=O)OCC(=O)[C@@]1(OC(=O)CC)[C@@H](C)C[C@H]2[C@@H]3CCC4=CC(=O)C=C[C@]4(C)[C@@]3(F)[C@@H](O)C[C@@]21C` [Betamethasone dipropionate, 9-fluoro-11(β),17,21-trihydroxy-16(β)-methylpregna-1,4-diene-3,20-dione 17,21-dipropionate], which Solubility in acetone (acetone) is on record?
Answer: Its Solubility in acetone is “freely soluble”.

Question: And the Solubility in chloroform (chloroform)?
Answer: Its Solubility in chloroform is “freely soluble”.

Question: What about the Solubility in ethanol (ethanol) of the same molecule?
Answer: The Solubility in ethanol was “sparingly soluble”.

Question: And the Solubility in water (water)?
Answer: The Solubility in water was “practically insoluble”.
